Source: ChEMBL document CHEMBL3856246, “Pharbilignan C induces apoptosis through a mitochondria-mediated intrinsic pathway in human breast cancer cells” (Bioorg Med Chem Lett, 2016)
Active and inactive are the calls of the source. The calls are words filed in the database; no cut-off is given here.

Key:
[1] = test system: MCF7; assay: Induction of apoptosis in human MCF7 cells assessed as late apoptotic cells at 5 uM after 72 hrs by Annexin V-FITC/propidium iodide based flow cytometric analysis (reference value: 1.28 %); type: functional
[2] = test system: MCF7; assay: Induction of apoptosis in human MCF7 cells assessed as early apoptotic cells at 5 uM after 72 hrs by Annexin V-FITC/propidium iodide based flow cytometric analysis (reference value: 1.14 %); type: functional
[3] = test system: MCF7; assay: Induction of apoptosis in human MCF7 cells assessed as viable cells at 5 uM after 72 hrs by Annexin V-FITC/propidium iodide based flow cytometric analysis (reference value: 94.10 %); type: functional; settings: MCF7, 72 h, read-out: Activity
[4] = Cytotoxicity against human A549 cells after 48 hrs by SRB assay; type: functional, cell-based; settings: A549, 48 h
[5] = Cytotoxicity against human SKOV3 cells after 48 hrs by SRB assay; type: functional, cell-based; settings: SK-OV-3, 48 h
[6] = Cytotoxicity against human SK-MEL-2 cells after 48 hrs by SRB assay; type: functional, cell-based; settings: SK-MEL-2, 48 h
[7] = Cytotoxicity against human HCT15 cells after 48 hrs by SRB assay; type: functional, cell-based; settings: HCT-15, 48 h
[8] = (§1) Cytotoxicity against human MDA-MB-231 cells assessed as reduction in cell viability after 72 hrs by WST1 assay; type: functional, cell-based; settings: MDA-MB-231, 72 h
[9] = test system: MDA-MB-231; assay: as §1; type: functional, cell-based
[10] = test system: MCF7; assay: Cytotoxicity against human MCF7 cells assessed as reduction in cell viability after 72 hrs by WST1 assay; type: functional, cell-based
[11] = test system: MDA-MB-231; assay: Induction of apoptosis in human MDA-MB-231 cells assessed as necrotic cells at 5 uM after 72 hrs by Annexin V-FITC/propidium iodide based flow cytometric analysis (reference value: 0.33 %); type: functional
[12] = test system: MDA-MB-231; assay: Induction of apoptosis in human MDA-MB-231 cells assessed as viable cells at 5 uM after 72 hrs by Annexin V-FITC/propidium iodide based flow cytometric analysis (reference value: 91.87 %); type: functional; settings: MDA-MB-231, 72 h, read-out: Activity
[13] = test system: MDA-MB-231; assay: Induction of apoptosis in human MDA-MB-231 cells assessed as early apoptotic cells at 5 uM after 72 hrs by Annexin V-FITC/propidium iodide based flow cytometric analysis (reference value: 7.73 %); type: functional
[14] = test system: MDA-MB-231; assay: Induction of apoptosis in human MDA-MB-231 cells assessed as late apoptotic cells at 5 uM after 72 hrs by Annexin V-FITC/propidium iodide based flow cytometric analysis (reference value: 0.07 %); type: functional
[15] = test system: MDA-MB-231; assay: Induction of apoptosis in human MDA-MB-231 cells assessed as viable cells at 10 uM after 72 hrs by Annexin V-FITC/propidium iodide based flow cytometric analysis (reference value: 91.87 %); type: functional; settings: MDA-MB-231, 72 h, read-out: Activity
[16] = test system: MDA-MB-231; assay: Induction of apoptosis in human MDA-MB-231 cells assessed as early apoptotic cells at 10 uM after 72 hrs by Annexin V-FITC/propidium iodide based flow cytometric analysis (reference value: 7.73 %); type: functional
[17] = test system: MDA-MB-231; assay: Induction of apoptosis in human MDA-MB-231 cells assessed as late apoptotic cells at 10 uM after 72 hrs by Annexin V-FITC/propidium iodide based flow cytometric analysis (reference value: 0.07 %); type: functional
[18] = test system: MDA-MB-231; assay: Induction of apoptosis in human MDA-MB-231 cells assessed as necrotic cells at 10 uM after 72 hrs by Annexin V-FITC/propidium iodide based flow cytometric analysis (reference value: 0.33 %); type: functional
[19] = test system: MDA-MB-231; assay: Induction of apoptosis in human MDA-MB-231 cells assessed as viable cells at 20 uM after 72 hrs by Annexin V-FITC/propidium iodide based flow cytometric analysis (reference value: 91.87 %); type: functional; settings: MDA-MB-231, 72 h, read-out: Activity
[20] = test system: MDA-MB-231; assay: Induction of apoptosis in human MDA-MB-231 cells assessed as early apoptotic cells at 20 uM after 72 hrs by Annexin V-FITC/propidium iodide based flow cytometric analysis (reference value: 7.73 %); type: functional
[21] = test system: MDA-MB-231; assay: Induction of apoptosis in human MDA-MB-231 cells assessed as late apoptotic cells at 20 uM after 72 hrs by Annexin V-FITC/propidium iodide based flow cytometric analysis (reference value: 0.07 %); type: functional
[22] = test system: MDA-MB-231; assay: Induction of apoptosis in human MDA-MB-231 cells assessed as necrotic cells at 20 uM after 72 hrs by Annexin V-FITC/propidium iodide based flow cytometric analysis (reference value: 0.33 %); type: functional
[23] = test system: MCF7; assay: Induction of apoptosis in human MCF7 cells assessed as necrotic cells at 5 uM after 72 hrs by Annexin V-FITC/propidium iodide based flow cytometric analysis (reference value: 3.48 %); type: functional
[24] = test system: MCF7; assay: Induction of apoptosis in human MCF7 cells assessed as viable cells at 10 uM after 72 hrs by Annexin V-FITC/propidium iodide based flow cytometric analysis (reference value: 94.10 %); type: functional; settings: MCF7, 72 h, read-out: Activity
[25] = test system: MCF7; assay: Induction of apoptosis in human MCF7 cells assessed as early apoptotic cells at 10 uM after 72 hrs by Annexin V-FITC/propidium iodide based flow cytometric analysis (reference value: 1.14 %); type: functional
[26] = test system: MCF7; assay: Induction of apoptosis in human MCF7 cells assessed as late apoptotic cells at 10 uM after 72 hrs by Annexin V-FITC/propidium iodide based flow cytometric analysis (reference value: 1.28 %); type: functional
[27] = test system: MCF7; assay: Induction of apoptosis in human MCF7 cells assessed as necrotic cells at 10 uM after 72 hrs by Annexin V-FITC/propidium iodide based flow cytometric analysis (reference value: 3.48 %); type: functional
[28] = test system: MCF7; assay: Induction of apoptosis in human MCF7 cells assessed as viable cells at 20 uM after 72 hrs by Annexin V-FITC/propidium iodide based flow cytometric analysis (reference value: 94.10 %); type: functional; settings: MCF7, 72 h, read-out: Activity
[29] = test system: MCF7; assay: Induction of apoptosis in human MCF7 cells assessed as early apoptotic cells at 20 uM after 72 hrs by Annexin V-FITC/propidium iodide based flow cytometric analysis (reference value: 1.14 %); type: functional
[30] = test system: MCF7; assay: Induction of apoptosis in human MCF7 cells assessed as late apoptotic cells at 20 uM after 72 hrs by Annexin V-FITC/propidium iodide based flow cytometric analysis (reference value: 1.28 %); type: functional
[31] = test system: MCF7; assay: Induction of apoptosis in human MCF7 cells assessed as necrotic cells at 20 uM after 72 hrs by Annexin V-FITC/propidium iodide based flow cytometric analysis (reference value: 3.48 %); type: functional
[32] = test system: MDA-MB-231; assay: Induction of apoptosis in human MDA-MB-231 cells after 72 hrs by Annexin V-FITC/propidium iodide based flow cytometric analysis; type: functional, cell-based
[33] = test system: MDA-MB-231; assay: Induction of apoptosis in human MDA-MB-231 cells assessed as downregulation of Bcl2 expression up to 20 uM after 72 hrs by Western blot analysis; type: functional, cell-based
[34] = Induction of apoptosis in human MDA-MB-231 cells assessed as upregulation of Bax expression up to 20 uM after 72 hrs by Western blot analysis; type: functional, cell-based
[35] = test system: MDA-MB-231; assay: Induction in apoptosis in human MDA-MB-231 cells assessed as decrease in mitochondrial membrane potential at 20 uM after 24 hrs by JC1 fluorescent dye based confocal microscopic analysis; type: functional, cell-based
[36] = test system: MDA-MB-231; assay: Induction of apoptosis in human MDA-MB-231 cells assessed as caspase-9 activation upto 20 uM after 72 hrs by Western blot analysis; type: functional, cell-based
[37] = test system: MDA-MB-231; assay: Induction of apoptosis in human MDA-MB-231 cells assessed as caspase-3 activation upto 20 uM after 72 hrs by Western blot analysis; type: functional, cell-based

CCOC(=O)/C=C/c1cc(O)c2c(c1)[C@@H](C(=O)OCC)[C@@H](c1ccc(O)c(O)c1)O2
Activity [1]: 0.6%
Activity [2]: 0.68%
viability at 5 µM [3]: 91.5%
IC50 [4]: 1420 nM
IC50 [5]: 160 nM
IC50 [6]: 200 nM
IC50 [7]: 140 nM
IC50 [8]: 7 µM
Activity [9]: Dose-dependent effect
Activity [10]: Dose-dependent effect
Activity [11]: 0.2%
viability at 5 µM [12]: 93%
Activity [13]: 6.73%
Activity [14]: 0.1%
viability at 10 µM [15]: 77.1%
Activity [16]: 19.5%
Activity [17]: 1.5%
Activity [18]: 1.9%
viability at 20 µM [19]: 68.3%
Activity [20]: 25.63%
Activity [21]: 3.17%
Activity [22]: 2.87%
Activity [23]: 7.24%
viability at 10 µM [24]: 88.9%
Activity [25]: 0.7%
Activity [26]: 1.1%
Activity [27]: 9.3%
viability at 20 µM [28]: 84.9%
Activity [29]: 1.22%
Activity [30]: 1.38%
Activity [31]: 12.46%
Activity [32]: Dose-dependent effect
Activity [33]: Active
Activity [34]: Active
Activity [35]: Active
Activity [36]: Active
Activity [37]: Active
